Experimental findings from a melting point compilation (Tetko et al.; mined from patent text by program, amines drawn as free bases though some values may be those of a salt) are described below.

The molecule `CCOC(=O)c1cn(CCCl)c2nc(N3CCN(C(C)=O)CC3)ncc2c1=O` displayed a melting point of 205 to 206 °C.

`O=C1CCOc2ccc(/C=C/c3nc4cc(F)ccc4s3)cc21` displayed a melting point of 197 to 199 °C.

`Cc1ccc2cccc(OCc3c(Cl)ccc(N)c3C#N)c2n1` had a melting point of 248 to 251 °C.

As for `CNS(=O)(=O)c1ccsc1C(=O)OC`, the melting point lay in the range of 115 to 122 °C.

Turning to `CCCc1cccc(C(C)(C)C)c1O`, the melting point is 89 to 90 °C.

`CNCC1=NN=C(c2ccc([N+](=O)[O-])cc2)c2cc3c(cc2C1)OCO3` showed a melting point of 110 to 112 °C.

`COc1ccc2c(c1)C(=O)N(c1ccc3ccn(CC#N)c3c1)C2` came in with a melting point of 218 to 220 °C.

As for `CN(CC(=O)N1CCN(Cc2ccc3c(c2)OCO3)CC1)c1ccc(Oc2ccc(NS(=O)(=O)c3ccc(Cl)c(Cl)c3)cn2)c(F)c1`, the melting point lay in the range of 186 to 187 °C.

`O=C1NCCc2c1c1ccccc1n2CC1CCCC1` came in with a melting point of 179 to 181 °C.

Consider `CC(C)(C)[Si](C)(C)N1C(=O)CC1SC(c1ccccc1)(c1ccccc1)c1ccccc1` (stereo not given), for which the melting point lay within 113 to 114 °C.

In turn, `CCN(CC)CCCC1CCN(CCNC(=O)N2c3ccccc3C(=O)Nc3cccnc32)CC1` returned a melting point of 165 to 166 °C.

Turning to `Oc1cccc(C2CCCN2Cc2ccccn2)c1` (stereo not given), the melting point lay within 96 to 98 °C.

`CCOC(=O)c1cccc([N+](=O)[O-])c1NC(=O)OC(C)(C)C`: the melting point lay in the range of 104 to 105 °C.

Molecule `COCCN(C)Cc1c(-c2ccc(NC(=O)NOC)cc2)sc2c1c(=O)n(-c1ccccc1)c(=O)n2Cc1c(F)cccc1F` returned a melting point of 161 to 163 °C.

`CC12CCC3C(CCC4CC(I)CCC43C)C1CCC2=O` (stereo not given): the melting point was 123 to 125 °C.

For the molecule `CCCCN1C(=O)C2(COc3cc4c(cc32)OCO4)c2ccccc21` (stereo not given), the melting point was 119 to 120 °C.

With `COc1ccc(-n2c(=O)oc(=O)c3ccccc32)cc1`, the melting point fell in the range of 215 to 216 °C.

Molecule `C=C(C)C(=O)NC1=CC(O)(C(C)=O)C(C(=O)O)C=C1` (stereo not given) registered a melting point of 178 °C.

`NC(=O)CNC(=O)c1cc(F)cc(-c2ccc(F)c3cc(Cc4cc(F)cc(Cl)c4)sc23)c1` yielded a melting point of 192 to 194 °C.

Take `CCOC(=O)c1c(CN(C)c2ccccc2)nc2cc(OC)c(OC)cc2c1-c1ccc(OC)c(OC)c1`: the melting point lay in the range of 194 to 196 °C.

Regarding `O=c1[nH]c2cc(Br)ccc2c(=O)o1`, the melting point was in the range of 280 to 281 °C.

Consider `CCNC(=O)c1cccc2c1c(=O)n(Cc1cccnc1)n2C(=O)OCC`, for which the melting point was in the range of 197 to 198 °C.

Take `COc1ccc2c(c1OC)CCOC2CCl` (stereo not given): the melting point was in the range of 63 to 65 °C.

As for `CCCCCCCCNC(=O)Nc1ccccc1C(=O)NC1CCN(C(c2ccccc2)c2ccccc2)CC1`, the melting point fell in the range of 149 to 151 °C.

Turning to `COCCn1nc(C(N)=O)cc1CC(C)(C)C#N`, the melting point fell in the range of 130 to 131 °C.

The molecule `Cc1ccc2nc3n(c2c1)CCC3` returned a melting point of 118 to 120 °C.

Regarding `CSc1ccc(-c2ccc(S(=O)(=O)CC(CO)N(O)C=O)cc2)cc1` (stereo not given), the melting point lay within 161 to 162 °C.

Molecule `CNC(=O)Nc1c2c(nc3sccc13)CCCC2` came in with a melting point of 253 to 255 °C.

On to `O=C1CNc2ncc(I)cc2N1Cc1cc(F)ccc1C(F)(F)F`, for which the melting point is 244 to 245 °C.

On to `CCOc1ccc([N+](=O)[O-])c(NCCN2CCOCC2)c1`, for which the melting point came out at 107 °C.

In turn, `COC(=O)C1=Cc2cc(-c3ccc4c(c3)OCO4)ccc2SCC1` yielded a melting point of 126 to 129 °C.

Turning to `CN(C)C=Nc1ccc(-c2ncnn2-c2ccc(F)cc2)cc1`, the melting point is 159 to 161 °C.

With `Cc1nc2nc3cc(Cl)ccc3nc2[nH]1`, the melting point is > 300 °C.

On to `CC(=O)OCc1ccc(C=Cc2csc3ccccc23)s1`, for which the melting point was in the range of 66 to 68 °C.

As for `Nc1ccc(Oc2ccc3sncc3c2)cc1`, the melting point was 100 °C.

Molecule `c1ccc2c(c1)ncc1nc(C3CCCCC3)[nH]c12` gave a melting point of 205 to 206 °C.

For `O=C(O)c1cn(C2CC2)c2c(F)c(N3CCNCC3)c(F)cc2c1=O`, the melting point was > 270 °C.

Consider `CC(=O)C(C#N)c1cccc(Br)c1` (stereo not given), for which the melting point lay within 96 to 100 °C.

For the molecule `CCOC(=O)CCC1=C(C#N)C(c2ccccc2Cl)c2c[nH]nc2N1` (stereo not given), the melting point lay within 172 to 174 °C.

In the case of `COCCOc1ccc(N=Nc2cc(S(=O)(=O)N3CCCC3)c(O)c3cccc(NS(C)(=O)=O)c23)cc1S(=O)(=O)Cl`, the melting point was in the range of 184 to 187 °C.

Turning to `O=C1CNc2ncc(-c3cccnc3)cc2N1Cc1ccccc1`, the melting point worked out at 58 °C.

`C=CCCO[C@@H](Cc1ccc(OCCc2nc(C(C)(C)C)oc2C)c2ccsc12)C(=O)O` had a melting point of 70 to 71 °C.

Regarding `COC(=O)c1cc(S(C)(=O)=O)nc(Cl)n1`, the melting point fell in the range of 127 to 129 °C.

On to `CCCN1CCC(=O)C2=C1COc1ccc(OC)cc12`, for which the melting point is 97 to 100 °C.

As for `COc1ccc([N+](=O)[O-])c(F)c1`, the melting point lay in the range of 47 to 49 °C.

As for `COC(=O)c1ncn2c1CN(C)C(=O)c1cc(F)ccc1-2`, the melting point lay in the range of 195 to 196 °C.

As for `COc1ccc2c(C)c(CCOS(C)(=O)=O)c(=O)oc2c1`, the melting point lay within 174 to 175 °C.

As to `CCCN=C1SC(=CC(=O)O)C(=O)N1CCC`, the melting point lay in the range of 101 to 103 °C.

`COc1ccc(C(=O)Nc2c(Cl)cncc2Cl)c2c1OCCCCO2` had a melting point of 115 to 117 °C.

With `COc1cc(C=CC=O)cc(OC)c1OCc1ccccc1`, the melting point is 114 to 115 °C.

The molecule `Cc1c(C(C)CC(=O)O)n(Cc2ccc(Cl)cc2)c2ccc(F)cc12` (stereo not given) displayed a melting point of 143 °C.

With `Cc1ccc(C(C=O)=CN(C)C)c([N+](=O)[O-])c1`, the melting point was in the range of 117 to 119 °C.

As for `O=C(CCCCN1CCC(Cc2ccccc2)CC1)c1ccc2c(c1)Cc1cc(C(=O)CCCCN3CCC(Cc4ccccc4)CC3)ccc1-2`, the melting point was in the range of 147 to 149 °C.

For the molecule `Fc1ccc(-c2nc(S)ncc2CCN2CCC(=Cc3ccccc3F)CC2)cc1`, the melting point lay within 157 to 158 °C.

For the molecule `O=C1N(C(c2ccccc2)c2ccccc2)c2c(F)cccc2C1(O)c1cc2c(cc1O)OCC2` (stereo not given), the melting point is 121 to 122 °C.

`CCCCc1ccc(OCCN2CCN(c3cc(Cl)nnc3Cl)CC2)cc1`: the melting point was 83 to 84 °C.

`CCn1c2ccccc2c2oc(C(N)=O)cc(=O)c21` showed a melting point of 224 to 226 °C.

In the case of `CC(=O)N(O)C(C)c1ccc(-c2ccc(OCc3nc4ccccc4s3)cc2)cc1` (stereo not given), the melting point was 197 to 199 °C.

Take `O=C(CCCCCNC(=O)CCc1ccccc1)NO`: the melting point came to 107 °C.

For `O=C(NCCc1ccccc1)C(F)(F)F`, the melting point lay within 50 to 52 °C.

Regarding `CCN(CC)Cc1cc(C(N)=O)cc(Br)c1N`, the melting point was 140 to 142 °C.

With `CC1(C(=O)c2c[nH]c3ncc(-c4ccc(N5CCCCC5)cc4)nc23)CCCCC1`, the melting point was in the range of 234 to 236 °C.

Molecule `Cc1csc(-c2ccc3c(c2)C=C(C(=O)Nc2ccc(CN(C)C4CCOCC4)cc2)CCS3(=O)=O)c1` registered a melting point of 232 to 234 °C.

`Cc1cc2cc(CN3CCCC3)cnc2cc1NC(=O)c1ccc(-c2ccc3ccccc3c2)cc1` displayed a melting point of 194 °C.

Molecule `COc1cccc(S(=O)c2cccc(F)c2C#N)c1` (stereo not given) returned a melting point of 103 to 111 °C.

What is called melting point is the temperature, or range, at which the solid turns liquid.
